Columns and labels:
A549 cells = assay: MTT antiproliferative assay, A549; assay type: cell-based, human; conditions: Homo sapiens, read-out: In vitro antiproliferative activity IC50, A549
Protocol: (§1) IC50 values of the test compounds against A549, MCF-7, Hela and HepG2 cells were obtained from State Key Laboratory of Pharmaceutical Biotechnology, Nanjing University, and were determined by a standard (MTT)-based colorimetric assay (Beyotime Inst. Biotech., Nanjing, China). Tumor cell lines were grown to mid-log phase and then diluted to […] making sure they were seeded in 96-well plates (Philas, Nanjing, China) at a density of 5 × 10^3–1 × 10^4 cells per well. The outer wells containing 1 × PBS solution of the plate are not used for the assay to avoid the possibility of edge effects. The plate was incubated at 37 °C in a 5% CO2 incubator in DMEM containing 10% fetal bovine serum (FBS, Gibco, Waltham, MA, USA) for 24 h. Then, we added a 100-μL series concentration of drug-containing medium into the wells to maintain the final concentration of drug as 100, 10, 1 and 0.1 μmol/L. After 12 h, cell survival was determined by the addition of a MTT (3-(4,5-dimethylthiazol-2-yl)-2,5-diphenyl trtrazolium bromide) solution (10 μL of 5 mg/mL MTT in 1 × PBS). We waited for 4 h proliferation, discarded the medium and quickly added 150 μL DMSO per well, shaking the plates well for 10 min to ensure complete dissolution. Optical absorbance was measured at 570 nm on a microplate reader (Bio-Rad, Hercules, CA, USA). Survival ratios are expressed in percentages with respect to untreated cells. The experiments were replicated at least three times to verify the methodology reproducibility when using the above-mentioned conditions.

MCF-7 cells = assay: MTT antiproliferative assay, MCF-7; assay type: cell-based, human; conditions: Homo sapiens, MCF7, read-out: In vitro antiproliferative activity IC50, MCF-7
Protocol: as §1

HeLa cells = assay: MTT antiproliferative assay, HeLa; assay type: cell-based, human; conditions: Homo sapiens, read-out: In vitro antiproliferative activity IC50, HeLa
Protocol: as §1

HepG2 cells = assay: MTT antiproliferative assay, HepG2; assay type: cell-based, human; conditions: Homo sapiens, read-out: In vitro antiproliferative activity IC50, HepG2
Protocol: as §1

[1] = Cytotoxicity test (MTT) on 293T cells; conditions: human, 293T human kidney epithelial cells
Protocol: The cytotoxic activity in vitro was measured by the colorimetric MTT assay. […] For the cytotoxicity assay, 20 μL of MTT (5 mg/mL) was added per well 4 h before the end of the incubation. After removing the supernatant, 200 μL DMSO was added to dissolve the formazan crystals. The absorbance at λ 570 nm was read on an LX300 Epson Diagnostic microplate reader, untreated cells were used as negative controls.

[2] = biological target: epidermal growth factor receptor (EGFR) (Homo sapiens, UniProt P00533); assay: EGFR kinase inhibition, solid-phase ELISA assay
epidermal growth factor receptor (EGFR), sequence (P00533 25-1210): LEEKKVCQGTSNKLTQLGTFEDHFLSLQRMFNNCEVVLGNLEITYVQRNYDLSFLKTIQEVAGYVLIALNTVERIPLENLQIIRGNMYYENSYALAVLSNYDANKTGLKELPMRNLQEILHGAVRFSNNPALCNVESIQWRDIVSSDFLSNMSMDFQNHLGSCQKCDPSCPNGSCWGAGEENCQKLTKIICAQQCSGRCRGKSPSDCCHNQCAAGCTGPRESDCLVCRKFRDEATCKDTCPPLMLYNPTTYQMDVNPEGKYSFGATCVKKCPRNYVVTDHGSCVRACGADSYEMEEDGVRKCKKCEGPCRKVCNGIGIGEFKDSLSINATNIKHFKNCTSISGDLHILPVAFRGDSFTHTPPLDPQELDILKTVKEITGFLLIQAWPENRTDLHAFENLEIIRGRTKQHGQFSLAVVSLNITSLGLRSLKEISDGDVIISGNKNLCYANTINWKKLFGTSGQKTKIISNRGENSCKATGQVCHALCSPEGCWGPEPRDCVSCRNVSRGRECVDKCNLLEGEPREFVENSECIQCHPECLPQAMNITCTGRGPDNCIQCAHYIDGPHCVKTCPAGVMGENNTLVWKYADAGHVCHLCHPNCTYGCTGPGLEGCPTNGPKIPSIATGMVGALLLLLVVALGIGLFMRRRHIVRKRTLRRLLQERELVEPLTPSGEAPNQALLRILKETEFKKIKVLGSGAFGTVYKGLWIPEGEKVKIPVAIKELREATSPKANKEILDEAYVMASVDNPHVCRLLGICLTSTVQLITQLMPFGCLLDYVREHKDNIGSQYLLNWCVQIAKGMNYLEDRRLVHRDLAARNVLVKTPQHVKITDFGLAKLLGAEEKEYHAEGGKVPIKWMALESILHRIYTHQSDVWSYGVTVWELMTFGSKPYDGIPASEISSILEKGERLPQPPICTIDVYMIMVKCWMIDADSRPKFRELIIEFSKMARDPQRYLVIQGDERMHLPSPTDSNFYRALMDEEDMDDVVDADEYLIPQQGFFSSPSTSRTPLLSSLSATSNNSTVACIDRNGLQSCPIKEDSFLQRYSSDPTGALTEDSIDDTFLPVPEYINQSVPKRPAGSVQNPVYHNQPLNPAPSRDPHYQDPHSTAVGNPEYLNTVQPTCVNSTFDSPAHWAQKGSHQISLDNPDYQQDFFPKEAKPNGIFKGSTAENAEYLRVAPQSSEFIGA
Protocol: All these newly synthesized compounds were evaluated for their inhibitory activities against EGFR kinases using a solid-phase ELISA assay.
EGFR tyrosine kinase activity was determined by an enzyme linked-immunosorbent assay (ELISA) in 96-well plates precoated in a 10 mL reaction volume including 4 mL diluted test compounds, 4 mL substrate and 2 mL ATP. […] The plates were then aspirated and washed twice with 200 mL 0.9% (w/v) NaCl, and incorporation of Pi was determined with an LX300 Epson Diagnostic microplate reader. […] The experiments were replicated at least three times to verify the methodology reproducibility when using the above-mentioned conditions.

| IC50 (A549 cells) [µM] | IC50 (MCF-7 cells) [µM] | IC50 (HeLa cells) [µM] | IC50 (HepG2 cells) [µM] | melting point [°C] | IC50 [2] [µM] | Structure (SMILES) | CC50 at 24 h [1] [µM] |
| --- | --- | --- | --- | --- | --- | --- | --- |
| 10.7 | 15.9 | 17.1 | 19.8 | 233 to 235 | 7.2 | CCOc1ccc(C2=NN(c3ccc(C(=O)N/N=C/c4cccc(OC)c4)cc3)C(c3ccc4ccccc4c3)C2)cc1 (centres unmarked) [Compound H8, (E)-4-(3-(4-Ethoxyphenyl)-5-(naphthalen-2-yl)-4,5-dihydro-1H-pyrazol-1-yl)-N′-(3-methoxybenzylidene)-benzohydrazide] | 79.7 |
| 58.6 | 80.1 | 84.1 | 92.5 | 241 to 243 | 20 | COc1cccc(/C=N/NC(=O)c2ccc(N3N=C(c4cccc(F)c4)CC3c3ccc4ccccc4c3)cc2)c1 (centres unmarked) [Compound H10, (E)-4-(3-(3-Fluorophenyl)-5-(naphthalen-2-yl)-4,5-dihydro-1H-pyrazol-1-yl)-N′-(3-methoxybenzylidene)-benzohydrazide] | 95.8 |
| 75.7 | 93.2 | 94.1 | 89.5 | 237 to 239 | 24.6 | COc1ccc(/C=N/NC(=O)c2ccc(N3N=C(c4cc(OC)c(OC)c(OC)c4)CC3c3ccc4ccccc4c3)cc2)cc1 (centres unmarked) [Compound H23, (E)-N′-(4-Methoxybenzylidene)-4-(5-(naphthalen-2-yl)-3-(3,4,5-trimethoxyphenyl)-4,5-dihydro-1H-pyrazol-1-yl)benzohydrazide] | 85.8 |
| 44.1 | 59 | 54.2 | 62.9 | 236 to 238 | 13.8 | COc1ccc(/C=N/NC(=O)c2ccc(N3N=C(c4ccc(F)cc4)CC3c3ccc4ccccc4c3)cc2)cc1 (centres unmarked) [Compound H27, (E)-4-(3-(4-Fluorophenyl)-5-(naphthalen-2-yl)-4,5-dihydro-1H-pyrazol-1-yl)-N'-(4-methoxybenzylidene)-benzohydrazide] | 89.4 |
| 9.92 | 13.8 | 15.3 | 18.6 | 237 to 239 | 6.65 | CCOc1ccc(C2=NN(c3ccc(C(=O)N/N=C/c4ccc(OC)cc4)cc3)C(c3ccc4ccccc4c3)C2)cc1 (centres unmarked) [Compound H24, (E)-4-(3-(4-Ethoxyphenyl)-5-(naphthalen-2-yl)-4,5-dihydro-1H-pyrazol-1-yl)-N′-(4-methoxybenzylidene)-benzohydrazide] | 81.3 |

Second part, the compound before the results:

| Structure (SMILES) | IC50 (A549 cells) [µM] | IC50 (MCF-7 cells) [µM] | IC50 (HeLa cells) [µM] | IC50 (HepG2 cells) [µM] | melting point [°C] | IC50 [2] [µM] | CC50 at 24 h [1] [µM] |
| --- | --- | --- | --- | --- | --- | --- | --- |
| COc1ccc(/C=N/NC(=O)c2ccc(N3N=C(c4ccc(Cl)cc4)CC3c3ccc4ccccc4c3)cc2)cc1 (centres unmarked) [Compound H30, (E)-4-(3-(4-Chlorophenyl)-5-(naphthalen-2-yl)-4,5-dihydro-1H-pyrazol-1-yl)-N′-(4-methoxybenzylidene)-benzohydrazide] | 28.6 | 40.4 | 35.3 | 38.2 | 237 to 239 | 10 | 88.5 |
| COc1ccc(/C=N/NC(=O)c2ccc(N3N=C(c4cccc(F)c4)CC3c3ccc4ccccc4c3)cc2)cc1 (centres unmarked) [Compound H26, (E)-4-(3-(3-Fluorophenyl)-5-(naphthalen-2-yl)-4,5-dihydro-1H-pyrazol-1-yl)-N′-(4-methoxybenzylidene)-benzohydrazide] | 56.4 | 77.5 | 85.2 | 80.1 | 240 to 242 | 18.6 | 94.3 |
| C#Cc1cccc(Nc2ncnc3cc(OCCOC)c(OCCOC)cc23)c1 [Erlotinib, reference compound] | 0.2 | 0.12 | 0.17 | 0.1 |  |  |  |

Reference: article PMC6273578, “Design, Synthesis and Biological Evaluation of Benzohydrazide Derivatives Containing Dihydropyrazoles as Potential EGFR Kinase Inhibitors” (Molecules, 2016)
